Experimental data: US11899019B2, “Method for predicting efficacy of anti-PD-1 antibody or anti-PD-L1 antibody therapy, method for evaluating cancer grade, and method for enhancing efficacy of anti-PD-1 antibody or anti-PD-L1 antibody therapy” (J-Pharma Co., Ltd., priority 2017, dated 2024)
Values joined by “and” are separate entries in the source; they are usually repeats but may differ in a detail not shown here. Equal values may be shown once. Marks after values point to notes of the source that are not given here.

Columns and labels:
LAT1 mRNA [1] = test: siRNA knockdown, LAT1 mRNA by quantitative PCR in WiDr cells; format: cell-based, human; conditions: 48 hours after siRNA introduction, relative value with control siRNA = 1, n = 4
Description: (§1) The suppression of mRNA expression of PD-L1 or LAT1 at the transcriptional level was attempted using siRNA. WiDr cells (derived from human colon-adenocarcinoma), SKN cells (human uterine leiomyosarcoma cells), and H520 cells (human pulmonary squamous cell carcinoma cells) were seeded in culture dishes. siRNA that suppresses the mRNA expression of PD-L1, siRNA that suppresses the mRNA expression of LAT1, or a control siRNA was introduced into cells. As the siRNA, Silencer (registered trademark) Select siRNAs of the Ambion (registered trademark) series from Thermo Fisher Scientific K.K. Specifically, siPD-L1 #2 (siRNA ID: s26548) set forth in SEQ ID NOs: 1 and 2 was used as the siRNA for suppressing the mRNA expression of PD-L1, siLAT1 #3 (siRNA ID: s15653) set forth in SEQ ID NOs: 3 and 4 was used as the siRNA for suppressing the mRNA expression of LAT1, and Silencer Select Negative control #2 (Cat #: 390847) was used as the control siRNA. Cells were collected 48 hours later, when the suppression effect on expression tends to be prominent, and mRNA expression levels of LAT1 and PD-L1 per cell were analyzed by quantitative PCR.
(§2) In Table 7, the mRNA expression levels per cell are expressed as relative values, with the mRNA expression level in the cells, to which the control siRNA was introduced, being 1. […]

PD-L1 mRNA [2] = test: siRNA knockdown, PD-L1 mRNA by quantitative PCR in WiDr cells; format: cell-based, human; conditions: 48 hours after siRNA introduction, relative value with control siRNA = 1, n = 4
Description: as §1, §2

LAT1 mRNA [3] = test: siRNA knockdown, LAT1 mRNA by quantitative PCR in SKN cells; format: cell-based, human; conditions: 48 hours after siRNA introduction, relative value with control siRNA = 1, n = 4
Description: as §1, §2

PD-L1 mRNA [4] = test: siRNA knockdown, PD-L1 mRNA by quantitative PCR in SKN cells; format: cell-based, human; conditions: 48 hours after siRNA introduction, relative value with control siRNA = 1, n = 4
Description: as §1, §2

LAT1 mRNA [5] = test: siRNA knockdown, LAT1 mRNA by quantitative PCR in H520 cells; format: cell-based, human; conditions: 48 hours after siRNA introduction, relative value with control siRNA = 1, n = 4
Description: as §1, §2

PD-L1 mRNA [6] = test: siRNA knockdown, PD-L1 mRNA by quantitative PCR in H520 cells; format: cell-based, human; conditions: 48 hours after siRNA introduction, relative value with control siRNA = 1, n = 4
Description: as §1, §2

PD-L1 mRNA [7] = test: Change of PD-L1 expression level by JPH2O3, quantitative PCR in HuccT1 cells; format: cell-based, human; conditions: 30 μM, 24 hours treatment
Description: (§3) The LAT1 activity was suppressed using an inhibitor JPH2O3 instead of the gene suppression using siRNA, and it was examined whether results similar to Test Example 5 would be obtained. JPH2O3 is O-(5-amino-2-phenylbenzoxazol-7-yl)methyl-3,5-dichloro-L-tyrosine. HuccT1 cells (derived from human bile duct cancer) and OST cells (derived from human fibrosarcoma of bone) were seeded in culture dishes. After treatment with 30 μM of JPH2O3 (LAT1 selective inhibitor) for 24 hours, cells were collected and mRNA expression levels of PD-L1 were analyzed by quantitative PCR.
(§4) In Table 8, the mRNA expression levels per cell are expressed as relative values, with the expression level of the control that was not treated with JPH2O3 being 1. In both HuccT1 cells and OST cells, the expression of PD-L1 was increased. […] Moreover, since the inhibition of LAT1 increased the expression of PD-L1, it is considered that the LAT1 inhibition therapy can increase the expression level of PD-L1 as well as reduce the expression level or activity of LAT1 in patients. In other words, it is considered that the expression level of PD-L1 in patients can be brought close to those in patients of the P-predominance type by the LAT1 inhibition therapy.

PD-L1 mRNA [8] = test: Change of PD-L1 expression level by JPH2O3, quantitative PCR in OST cells; format: cell-based, human; conditions: 30 μM, 24 hours treatment
Description: as §3, §4

[9] = test system: advanced non-small cell lung cancers (Stage III/IV); test: Response to nivolumab in non-small cell lung cancer patients, determined by CT in accordance with RECIST; format: in vivo, human
Description: Cancer tissues were collected from 21 patients with first line anticancer therapy resistant/relapsed advanced non-small cell lung cancers (Stage III/IV) incorporated in this examination, and the expressions of LAT1 and PD-L1 were examined by immunohistochemistry using an anti-LAT1 antibody and an anti-PD-L1 antibody. Tumors were determined as positive when the cell membrane of the tumors, together with PD-L1 and LAT1, were stained. Tumors having 10% or more of PD-L1-positive cells were defined as having high PD-L1 expression, and tumors having 25% or more of LAT1-positive cells were defined as having high LAT1 expression.
The response rate was evaluated in accordance with the international criteria for which the tumor sizes are measured by CT and the tumors are classified into response, progression, or stable. The response refers to cases where 30% or more decrease is observed in the longer axis of the tumor after the administration of the agent. The progression refers to cases where the 20% or more increase is observed in the longer axis of the tumor after the administration of the agent. The stable refers to cases where the shrinkage of the tumor is insufficient to classify it as response and the increase of the tumor in comparison with the minimum sum of the longest axis after the start of the therapy is insufficient to classify it as progression.

[10] = relative value with untreated control = 1, n = 4
[11] = relative value with untreated control = 1, n = 4, listed as JPH2O3
[12] = PD-L1 high expression group (8 patients), RECIST
[13] = PD-L1 low expression group (13 patients), RECIST
[14] = high LAT1 expression group (9 patients), RECIST
[15] = low LAT1 expression group (12 patients), RECIST
[16] = single patient of FIG. 8, high PD-L1 and low LAT1 expression

Compound: si-PD-L1: Silencer Select siRNA set forth in SEQ ID NOs: 1 and 2, suppressing the mRNA expression of PD-L1 (chain 1 GGACUCACUUGGUAAUUCUTT; chain 2 AGAAUUACCAAGUGAGUCCTT; chemistry not given here)
- LAT1 mRNA expression level (LAT1 mRNA [1]): 5.01***
- PD-L1 mRNA expression level (PD-L1 mRNA [2]): 0.46
- LAT1 mRNA expression level (LAT1 mRNA [3]): 1.52***
- PD-L1 mRNA expression level (PD-L1 mRNA [4]): 0.24
- LAT1 mRNA expression level (LAT1 mRNA [5]): 2.29***
- PD-L1 mRNA expression level (PD-L1 mRNA [6]): 0.37

Compound: Nc1cc(COc2c(Cl)cc(C[C@H](N)C(=O)O)cc2Cl)c2oc(-c3ccccc3)nc2c1 [JPH203, O-(5-amino-2-phenylbenzoxazol-7-yl)methyl-3,5-dichloro-L-tyrosine]
- PD-L1 mRNA expression level (PD-L1 mRNA [7]; [10]): 12.26**
- PD-L1 mRNA expression level (PD-L1 mRNA [7]; [11]): increased
- PD-L1 mRNA expression level (PD-L1 mRNA [8]; [10]): 2.79*
- PD-L1 mRNA expression level (PD-L1 mRNA [8]; [11]): increased

Compound: si-LAT1: Silencer Select siRNA set forth in SEQ ID NOs: 3 and 4, suppressing the mRNA expression of LAT1 (chain 1 UGUCCAAUCUAGAUCCCAATT; chain 2 UUGGGAUCUAGAUUGGACACA; chemistry not given here)
- LAT1 mRNA expression level (LAT1 mRNA [1]): 0.11
- PD-L1 mRNA expression level (PD-L1 mRNA [2]): 1.82***
- LAT1 mRNA expression level (LAT1 mRNA [3]): 0.06
- PD-L1 mRNA expression level (PD-L1 mRNA [4]): 1.04***
- LAT1 mRNA expression level (LAT1 mRNA [5]): 0.11
- PD-L1 mRNA expression level (PD-L1 mRNA [6]): 0.82***

Compound: nivolumab
- patients exhibited a response [9, 12]: 4 patients
- patients exhibited progression [9, 12]: 1 patient
- patients exhibited a response [9, 13]: 3 patients
- patients exhibited progression [9, 13]: 7 patients
- patients exhibited a response ([9]; all 21 patients): 7 patients
- patients exhibited no response ([9]; all 21 patients): 14 patients
- patients exhibited progression ([9]; all 21 patients): 7 patients
- response rate ([9]; all 21 patients): 33%
- patients exhibited a response [9, 14]: 1 patient
- patients exhibited progression [9, 14]: 6 patients and 5 patients
- patients exhibited a response [9, 15]: 4 patients and 6 patients
- patients exhibited progression [9, 15]: 3 patients and 2 patients
- outcome of nivolumab treatment [9, 16]: responded
- progression-free survival [9, 16]: ≥ 10 months
- outcome of nivolumab treatment ([9]; single patient of FIG. 9, high LAT1 and low PD-L1 expression): progression
- outcome of nivolumab treatment ([9]; single patient of FIG. 10, high PD-L1 and high LAT1 expression): progression
